Assay results published in US10603304B1, “Compositions and methods for treating anxiety” (priority 2015, dated 2020).

What was measured:
lynx2KO mice [1] = test: light dark box experiment (latency to enter dark enclosed environment); format: in vivo; settings: lynx2KO mice under chronic stress with administration of mec, as opposed to lynx2KO mice without mec (FIG. 2A)
Description: FIG. 2A is a graph of the time in seconds (latency) for wild type (WT) (black bars) or lynx2 knock out (KO) (white bars) mice to enter a dark enclosed environment under conditions of saline, chronic stress, or chronic stress with administration of mecamylamine (mec) as indicated, according to embodiments of the present invention.

lynx2KO mice [2] = test: fear extinction experiment (fear associated with a noise after shock training); format: in vivo; settings: lynx2KO mice with administration of mec compared to lynx2KO mice without mec (FIGS. 2B-2C)
Method: FIG. 2B is a graph of fear observed in wild type (black circles) and lynx2KO mice (white triangles) after fear training (an electric shock depicted in yellow) associated with a noise for 24 hours followed by the same noise without the shock to measure the mouse's capability to lose the fear, according to embodiments of the present invention.
FIG. 2C is a graph of fear observed in lynx2KO mice during the fear extinction experiment of FIG. 2B with a group of lynx2KO mice receiving mecamylamine (mec), according to embodiments of the present invention.

[3] = system: amygdala (EC) neurons of lynx2KO mice; test: long term depression (LTD) of evoked fEPSPs in brain slices after theta pulse stimulations; format: cell-based; settings: brain slices from lynx2KO mice in ACSF solution with 20 mM methyllycaconitine (MLA), theta pulse stimulations (FIG. 4D)
Method: FIG. 4D is a graph of stimulating electrode traces from long term depression (LTD) experiments using extracellular recordings for evoked field excitatory post-synaptic potentials (fEPSPs) in […] (EC) brain slices in ACSF solution with […] methyllycaconitine (MLA) from lynx2 knockout (KO) mice before (left of zero minutes) and after (right of zero minutes) theta pulse stimulations (TSP), according to embodiments of the present invention.
The animals were anesthetized by isoflurane in an anesthetic chamber to a tolerant state (ml/kg) and euthanized through decapitation. […]
Field excitatory postsynaptic potentials (fEPSPs) were evoked by 0.05 Hz test stimulus though a bipolar stimulating electrode placed on external Capsule (EC), and a glass pipette as recording electrode was filled with ACSF and placed in BLA. […] Access resistances were continuously monitored and neurons with more than 20% change of series resistance were excluded from data analysis.
The plasticity ratio was calculated from the average EPSP amplitude of the last 10 mins of baseline recording and the last 15 mins after high frequency or low stimulus, for LTP and LTD studies, respectively. […] For all experiments, treatment effects were analyzed with one-way ANOVA, followed by the appropriate post hoc tests. […]

In the case of `CNC1(C)C2CCC(C2)C1(C)C` (stereo not drawn) [mecamylamine], the latency to dark (lynx2KO mice [1]) is reported as “increased latency to dark” and the “ability to unlearn a fear associated with a noise (fear extinction)” value (lynx2KO mice [2]) is reported as “increased ability to unlearn a fear”.

For `CCN1C[C@]2(COC(=O)c3ccccc3N3C(=O)C[C@H](C)C3=O)CC[C@H](OC)[C@@]34[C@@H]5C[C@H]6[C@H](OC)[C@@H]5[C@](O)(C[C@@H]6OC)[C@@](O)([C@@H](OC)[C@H]23)[C@@H]14` [methyllycaconitine], the “rescue of induced long term depression (LTD)” value [3] was “able to rescue induced long term depression (LTD)”.
